Laboratory results: US12662482B2 (The Johns Hopkins University, priority 2020, dated 2026)
Counter-ions that a name gives are not always drawn.

Tested on: RPA194
Assay: RPA194 destruction / Pol I inhibition, high-content imaging in A375 cells
Assay type: cell-based
Details: A375 cells treated for 4 hours, anti-RPA194 immunofluorescence; pIC50 >= 5.02 deemed a Pol I inhibitor
Protocol: Cell culture: A375 cells (CRL-1619, ATCC) were grown in DMEM (GJBCO) supplemented with […] (GTBCO) in 5% CO2 at 37° C.
Cell treatment and Imaging: 18 hours post-seeding in cell carrier black 384-well plates (PerkinElmer) at 15 000 cells/well, A375 cells were treated for 4 hours with a positive control or test compounds (9 serial semi-log dilutions, top concentration 10 μM). Upon treatment A375 cells were (i) fixed for 15 min at RT with 4% of paraformaldehyde, (ii) permeabilized for 20 min at RT with 0.1-0.5% of NP-40, (iii) incubated with primary antibodies at 4° C.: anti-RPA194 (1:1000-1:1250 dilution, sc-48385, Santa Cruz Biotechnology) and anti-gH2Ax (1:5000 dilution, 81299, Abcam or 1:4000, JBW302, Millipore) (iv) incubated for 1 h at RT with Hoechst (1:5000 dilution, H3570, ThermoFisher) and secondary antibodies: anti-mouse-AlexaFluor488 (1:2000 dilution, A11001, ThermoFisher) and anti-rabbit-AlexaFluor647 (1:2000 dilution, A21443, ThermoFisher) or goat anti-mouse AlexaFluor-594 (1:1000 dilution). Images were acquired on an Operetta CLS High-Content Analysis System (PerkinElmer) (40× objective; 9 fields/well) and processed using the Columbus Image Analysis System (PerkinElmer) or by using Molecular Devices ImageXpress Micro XLS High Content Imager and MetaXpress high-content acquisition and analysis software.
In the table below, (+) is associated with a pIC50 5.02 to 5.8; (++) with pIC50 5.8 to 6.3; and (+++) with a pIC50 above 6.3.

Row | SMILES | Activity Range (pIC50)
1 | CC1(C)CCN(CCNC(=O)c2cccn3c(=O)c4ccc5ccccc5c4nc23)C1 [Example 21, N-(2-(3,3-dimethylpyrrolidin-1-yl)ethyl)-7-oxo-7H-benzo[h]pyrido[2,1-b]quinazoline-12-carboxamide hydrochloride] | ++ ((++) with pIC50 5.8 to 6.3)
2 | CNC(C)CNC(=O)c1cccn2c(=O)c3ccc4ccccc4c3nc12 (single isomer, unassigned) [Example 20, (R or S)-N-(2-(methylamino)propyl)-7-oxo-7H-benzo[h]pyrido[2,1-b]quinazoline-12-carboxamide; hydrochloride] | ++ ((++) with pIC50 5.8 to 6.3)
3 | O=C(NCCCN1CC[C@H](O)C1)c1cccn2c(=O)c3ccc4ccccc4c3nc12 [Example 39, (S)-N-(3-(3-hydroxypyrrolidin-1-yl)propyl)-7-oxo-7H-benzo[h]pyrido[2,1-b]quinazoline-12-carboxamide hydrochloride] | + ((+) is associated with a pIC50 5.02 to 5.8)
4 | O=C1CCN(CCNC(=O)c2cccn3c(=O)c4ccc5ccccc5c4nc23)CC1 [Example 22, 7-oxo-N-(2-(4-oxopiperidin-1-yl)ethyl)-7H-benzo[h]pyrido[2,1-b]quinazoline-12-carboxamide hydrochloride] | ++ ((++) with pIC50 5.8 to 6.3)
5 | C[C@@H]1CCCN1CCNC(=O)c1cccn2c(=O)c3ccc4ccccc4c3nc12 [Example 35, (R)-N-(2-(2-methylpyrrolidin-1-yl)ethyl)-7-oxo-7H-benzo[h]pyrido[2,1-b]quinazoline-12-carboxamide; hydrochloride 1] | + ((+) is associated with a pIC50 5.02 to 5.8)
6 | O=C(NCCN1CCCC1)c1cccn2c(=O)c3ccc4ccccc4c3nc12 [Example 4, 7-oxo-N-(2-(pyrrolidin-1-yl)ethyl)-7H-benzo[h]pyrido[2,1-b]quinazoline-12-carboxamide hydrochloride] | +++ ((+++) with a pIC50 above 6.3)
7 | O=C(NCCN1CCC(O)CC1)c1cccn2c(=O)c3ccc4ccccc4c3nc12 [Example 5, N-(2-(4-hydroxypiperidin-1-yl)ethyl)-7-oxo-7H-benzo[h]pyrido[2,1-b]quinazoline-12-carboxamide hydrochloride] | +++ ((+++) with a pIC50 above 6.3)
8 | C[C@@H](CN(C)C)NC(=O)c1cccn2c(=O)c3ccc4ccccc4c3nc12 [Example 13, (S)-N-(1-(dimethylamino)propan-2-yl)-7-oxo-7H-benzo[h]pyrido[2,1-b]quinazoline-12-carboxamide; hydrochloride] | ++ ((++) with pIC50 5.8 to 6.3)
9 | CNCCNC(=O)c1cccn2c(=O)c3ccc4ccccc4c3nc12 [Example 16, N-(2-(methylamino)ethyl)-7-oxo-7H-benzo[h]pyrido[2,1-b]quinazoline-12-carboxamide hydrochloride] | +++ ((+++) with a pIC50 above 6.3)
10 | C[C@H](CN1CC[C@@H](O)C1)NC(=O)c1cccn2c(=O)c3ccc4ccccc4c3nc12 [Example 31, N-((R)-1-((R)-3-hydroxypyrrolidin-1-yl)propan-2-yl)-7-oxo-7H-benzo[h]pyrido[2,1-b]quinazoline-12-carboxamide hydrochloride] | +++ ((+++) with a pIC50 above 6.3)
11 | O=C(NCCN1CC[C@@H](F)C1)c1cccn2c(=O)c3ccc4ccccc4c3nc12 [Example 25, (R)-N-(2-(3-fluoropyrrolidin-1-yl)ethyl)-7-oxo-7H-benzo[h]pyrido[2,1-b]quinazoline-12-carboxamide hydrochloride] | + ((+) is associated with a pIC50 5.02 to 5.8)
12 | C[C@H](CNC(=O)c1cccn2c(=O)c3ccc4ccccc4c3nc12)N(C)C [Example 11, (R)-N-(2-(dimethylamino)propyl)-7-oxo-7H-benzo[h]pyrido[2,1-b]quinazoline-12-carboxamide; hydrochloride] | +++ ((+++) with a pIC50 above 6.3)
13 | C[C@@H](CN1C[C@H](O)[C@@H](O)C1)NC(=O)c1cccn2c(=O)c3ccc4ccccc4c3nc12 [Example 26, N-((S)-1-((3S,4S)-3,4-dihydroxy-pyrrolidin-1-yl)propan-2-yl)-7-oxo-7H-benzo[h]pyrido[2,1-b]quinazoline-12-carboxamide hydrochloride] | ++ ((++) with pIC50 5.8 to 6.3)
14 | O=C(NCCO)c1cccn2c(=O)c3ccc4ccccc4c3nc12 [Example 32, N-(2-hydroxyethyl)-7-oxo-7H-benzo[h]pyrido[2,1-b]quinazoline-12-carboxamide; hydrochloride] | + ((+) is associated with a pIC50 5.02 to 5.8)
15 | CN(C)CCNC(=O)c1cccn2c(=O)c3ccc4ccccc4c3nc12 [Example 1, hydrochloride] | +++ ((+++) with a pIC50 above 6.3)
16 | CCN(C)CCNC(=O)c1cccn2c(=O)c3ccc4ccccc4c3nc12 [Example 18, N-(2-(ethyl(methyl)amino)ethyl)-7-oxo-7H-benzo[h]pyrido[2,1-blquinazoline-12-carboxamide hydrochloride] | +++ ((+++) with a pIC50 above 6.3)
17 | O=C(NCCN1CC[C@H](F)C1)c1cccn2c(=O)c3ccc4ccccc4c3nc12 [Example 33, (S)-N-(2-(3-fluoropyrrolidin-1-yl)ethyl)-7-oxo-7H-benzo[h]pyrido[2,1-b]quinazoline-12-carboxamide; hydrochloride] | + ((+) is associated with a pIC50 5.02 to 5.8)
18 | C[C@H](CN(C)C)NC(=O)c1cccn2c(=O)c3ccc4ccccc4c3nc12 [Example 14, (R)-N-(1-(dimethylamino)propan-2-yl)-7-oxo-7H-benzo[h]pyrido[2,1-b]quinazoline-12-carboxamide; hydrochloride] | +++ ((+++) with a pIC50 above 6.3)
19 | O=C(NCCN1CC[C@H](O)C1)c1cccn2c(=O)c3ccc4ccccc4c3nc12 [Example 2, (S)-N-(2-(3-hydroxypyrrolidin-1-yl)ethyl)-7-oxo-7H-benzo[h]pyrido[2,1-b]quinazoline-12-carboxamide; hydrochloride] | +++ ((+++) with a pIC50 above 6.3)
20 | CN(C)C(C)(C)CNC(=O)c1cccn2c(=O)c3ccc4ccccc4c3nc12 [Example 6, N-(2-(dimethylamino)-2-methylpropyl)-7-oxo-7H-benzo[h]pyrido[2,1-b]quinazoline-12-carboxamide hydrochloride] | ++ ((++) with pIC50 5.8 to 6.3)
21 | O=C(NCCCN1CC2CCC(C1)O2)c1cccn2c(=O)c3ccc4ccccc4c3nc12 [Example 34, N-(3-(8-oxa-3-azabicyclo[3.2.1]octan-3-yl)propyl)-7-oxo-7H-benzo[h]pyrido[2,1-b]quinazoline-12-carboxamide; hydrochloride] | + ((+) is associated with a pIC50 5.02 to 5.8)
22 | C[C@@H](CN1CC[C@H](O)C1)NC(=O)c1cccn2c(=O)c3ccc4ccccc4c3nc12 [Example 28, N-((S)-1-((S)-3-hydroxypyrrolidin-1-yl)propan-2-yl)-7-oxo-7H-benzo[h]pyrido[2,1-b]quinazoline-12-[(2S)-2-aminopropyl] pyrrolidin-3-ol; hydrochloride (165 mg, carboxamide hydrochloride] | ++ ((++) with pIC50 5.8 to 6.3)
